Reference: US20130096135A1, “Selected Inhibitors of Protein Tyrosine Kinase Activity” (METHYLGENE INC., priority 2011, published 2013)
Converted amounts (≈) assume the structure as drawn.

What was measured:
[1] = target: T1, VEGF receptor KDR (VEGFR2) (Homo sapiens, UniProt P35968); assay: In vitro receptor tyrosine kinase assay (VEGF receptor KDR), DELFIA; format: biochemical; settings: recombinant GST-VEGFR2 (806-1356), ATP 0.6 uM, enzyme 5 nM; read-out: VEGFR_IC50_UM
T1 construct: made in house; host or cells: Sf9 cells (Spodoptera frugiperda), baculovirus
T1 sequence (P35968 806-1356): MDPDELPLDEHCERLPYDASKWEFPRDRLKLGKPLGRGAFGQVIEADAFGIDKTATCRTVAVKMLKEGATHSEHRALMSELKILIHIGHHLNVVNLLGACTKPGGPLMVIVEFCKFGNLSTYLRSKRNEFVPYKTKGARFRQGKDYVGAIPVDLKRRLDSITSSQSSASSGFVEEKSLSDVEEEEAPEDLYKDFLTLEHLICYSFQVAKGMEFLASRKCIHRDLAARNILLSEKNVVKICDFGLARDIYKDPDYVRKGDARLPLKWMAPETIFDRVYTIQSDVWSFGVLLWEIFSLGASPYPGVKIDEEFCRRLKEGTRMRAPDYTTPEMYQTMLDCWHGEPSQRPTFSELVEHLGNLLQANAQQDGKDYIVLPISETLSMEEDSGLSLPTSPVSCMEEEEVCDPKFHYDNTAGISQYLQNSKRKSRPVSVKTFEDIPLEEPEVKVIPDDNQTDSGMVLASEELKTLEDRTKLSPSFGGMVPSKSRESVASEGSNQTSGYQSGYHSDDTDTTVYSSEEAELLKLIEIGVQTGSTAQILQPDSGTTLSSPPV
Excerpt: In Vitro Receptor Tyrosine Kinase Assay (VEGF receptor KDR)
This test measures the ability of compounds to inhibit the enzymatic activity of recombinant human VEGF receptor enzymatic activity.
A 1.6-kb cDNA corresponding to the catalytic domain of VEGFR2 (KDR) (Genbank accession number AF035121 amino acid 806 to 1356) is cloned into the Pst I site of the pDEST20 Gateway vector (Invitrogen) for the production of a GST-tagged version of that enzyme. This construct is used to generate recombinant baculovirus using the Bac-to-Bac™ system according to the manufacturer's instructions (Invitrogen).
The GST-VEGFR2806-1356 protein is expressed in Sf9 cells (Spodoptera frugiperda) upon infection with recombinant baculovirus construct. Briefly, Sf9 cells grown in suspension and maintained in serum-free medium (Sf900 II supplemented with gentamycin) at a cell density of about 2×10^6 cells/ml are infected with the above-mentioned viruses at a multiplicity of infection (MOI) of 0.1 during 72 hours at 27° C. with agitation at 120 rpm on a rotary shaker. Infected cells are harvested by centrifugation at 398g for 15 min. Cell pellets are frozen at −80° C. until purification is performed.
All steps described in cell extraction and purification are performed at 4° C. Frozen Sf9 cell pellets infected with the GST-VEGFR2806-1356 recombinant baculovirus are thawed and gently resuspended in Buffer A (PBS pH 7.3 supplemented with 1 μg/ml pepstatin, 2 μg/ml Aprotinin and leupeptin, 50 μg/ml PMSF, 50 μg/ml TLCK and 10 μM E64 and 0.5 mM DTT) using 3 ml of buffer per gram of cells. Suspension is Dounce homogenized and 1% Triton X-100 is added to the homogenate after which it is centrifuged at 22500 g, 30 min., 4 °C. The supernatant (cell extract) is used as starting material for purification of GST-VEGFR2806-1356.
The supernatant is loaded onto a GST-agarose column (Sigma) equilibrated with PBS pH 7.3. Following a four column volume (CV) wash with PBS pH 7.3+1% Triton X-100 and 4 CV wash with buffer B (50mM Tris pH 8.0, 20% glycerol and 100mM NaCl), bound proteins are step eluted with 5 CV of buffer B supplemented with 5 mM DTT and 15 mM glutathion. GST-VEGFR2806-1356 enriched fractions from this chromatography step are pooled based on U.V. trace i.e. fractions with high 0.D.280. Final GST-VEGFR2806-1356 protein preparations concentrations are about 0.7 mg/ml with purity approximating 70%. Purified GST-VEGFR2806-1356 protein stocks are aliquoted and frozen at −80° C. prior to use in enzymatic assay.
Inhibition of VEGFR/KDR is measured in a DELFIATM assay (Perkin Elmer). The substrate poly(Glu4, Tyr) is immobilized onto black high-binding polystyrene 96-well plates. The coated plates are washed and stored at 4° C. During the assay, the enzyme is pre-incubated with inhibitor and Mg-ATP on ice in polypropylene 96-well plates for 4 minutes, and then transferred to the coated plates. The subsequent kinase reaction takes place at 30° C. for 10-30 minutes. ATP concentrations in the assay are 0.6 uM for VEGFR/KDR (2× the Km). Enzyme concentration is 5 nM. After incubation, the kinase reactions are quenched with EDTA and the plates are washed. Phosphorylated product is detected by incubation with Europium-labeled anti-phosphotyrosine MoAb. After washing the plates, bound MoAb is detected by time-resolved fluorescence in a Gemini SpectraMax reader (Molecular Devices). Compounds are evaluated over a range of concentrations, and IC50 values (concentration of compounds giving 50% inhibition of enzymatic activity) are determined.

[2] = Solubility measurements in PBS (pH 7.4), filtration, HPLC-UV; format: physicochemical; settings: PBS (pH 7.4) with 1% DMSO, aqueous buffer, kinetic from dmso stock, PBS pH 7.4, 100 μM test substance, room temperature
Description: The solubility of each substance was assessed using MultiScreen® HTS 96-well filtration system (filter; polycarbonate, pore size; 0.4 μm, Millipore). DMSO stock solutions of each test substance (10 mM) were prepared to initiate the assay. The equilibration was performed in PBS (pH 7.4) containing 100 μM of a test substance and 1% DMSO, for 24 hours at room temperature with shaking The concentrations of test substances in each filtrate were determined by HPLC-UV.
HPLC conditions were following:
Waters ACQUITY UPLC H class instrument.
Eluent A: 10 mM aqueous Ammonium formate
Eluent B: 0.1 volume % formic acid in acetonitrile
Flow: 1 mL/min, UV: 316 nm

SMILES	IC50 [1]	solubility at 24 h [2]
C[C@H](O)CN1CCN(Cc2ccc(-c3cc4nccc(Oc5ccc(NC(=O)NC6CC6)cc5F)c4s3)nc2)CC1 [Compound 30]	4 nM	6.46 µM (≈ 3.73 µg/mL)
CN(C)CCNC(=O)[C@H]1CCCN(Cc2ccc(-c3cc4nccc(Oc5ccc(NC(=O)NC6CC6)cc5F)c4s3)nc2)C1 [Compound 13, (S)-1-((6-(7-(4-(3-Cyclopropylureido)-2-fluorophenoxy)thieno[3,2-b]pyridin-2-yl)pyridin-3-yl)methyl)-N-(2-(dimethylamino)ethyl)piperidine-3-carboxamide]	8 nM	
CN(C)CCNC(=O)[C@@H]1CCCN(Cc2ccc(-c3cc4nccc(Oc5ccc(NC(=O)NC6CC6)cc5F)c4s3)nc2)C1 [Compound 10, (R)-1-((6-(7-(4-(3-Cyclopropylureido)-2-fluorophenoxy)thieno[3,2-b]pyridin-2-yl)pyridin-3-yl)methyl)-N-(2-(dimethylamino)ethyl)piperidine-3-carboxamide]	7 nM	
CNCC(=O)N1CCN(Cc2ccc(-c3cc4nccc(Oc5ccc(NC(=O)NC6CC6)cc5F)c4s3)nc2)CC1 [Compound 28, 1-Cyclopropyl-3-(3-fluoro-4-(2-(5-((4-(2-(methylamino)acetyl)piperazin-1-yl)methyl)pyridin-2-yl)thieno[3,2-b]pyridin-7-yloxy)phenyl)urea]	5 nM	

More lines, now with the values ahead:

IC50 [1]	solubility at 24 h [2]	SMILES
1 nM	1.19 µM (≈ 0.72 µg/mL)	CC(C)(O)C(=O)N1CCN(Cc2ccc(-c3cc4nccc(Oc5ccc(NC(=O)NC6CC6)cc5F)c4s3)nc2)CC1 [Compound 35-A, 1-Cyclopropyl-3-(3-fluoro-4-(2-(5-((4-(2-hydroxy-2-methylpropanoyl)piperazin-1-yl)methyl)pyridin-2-yl)thieno[3,2-b]pyridin-7-yloxy)phenyl)urea]
4 nM		CC(=O)OC(C)(C)C(=O)N1CCN(Cc2ccc(-c3cc4nccc(Oc5ccc(NC(=O)NC6CC6)cc5F)c4s3)nc2)CC1 [Compound 35, 1-(4-((6-(7-(4-(3-Cyclopropylureido)-2-fluorophenoxy)thieno[3,2-b]pyridin-2-yl)pyridin-3-yl)methyl)piperazin-1-yl)-2-methyl-1-oxopropan-2-yl acetate]
6 nM		COCC(=O)N1CCN(Cc2ccc(-c3cc4nccc(Oc5ccc(NC(=O)NC6CC6)cc5F)c4s3)nc2)CC1 [Compound 32, 1-Cyclopropvl-3-(3-fluoro-4-(2-(5-((4-(2-methoxyacetyl)piperazin-1-yl)methyl)pyridin-2-yl)thieno[3,2-b]pyridin-7-yloxy)phenyl)urea]
